These results are taken from patent EP4667483A1, “HUMAN TRANSFERRIN RECEPTOR-BINDING PEPTIDE” (JCR Pharmaceuticals Co., Ltd., priority 2023, dated 2024).

Numbered stars: 1 amine (or outer) side, 2 acyl side, 3 side chain; on linkers, the order of the positions; unused ones are H or OH. Bridge positions count the residues as written; N and C are the ends. Square brackets hold non-standard residues; d marks the D form. Peptide text beside a SMILES is read from it. * marks the point of attachment. Trp(1-CH2COOH) = N[C@@H](Cc1cn(CC(=O)O)c2ccccc12)C(=O)O; NMePhe(4-COOH) = CN[C@@H](Cc1ccc(C(=O)O)cc1)C(=O)O; X1 = O=C([C@H](Cc1cccc(C(=O)[*:3])c1)N[*:1])[*:2]; Nle(6-morpholino) = N[C@@H](CCCCN1CCOCC1)C(=O)O; Phe(3-COOH) = N[C@@H](Cc1cccc(C(=O)O)c1)C(=O)O; Trp(7-aza) = N[C@@H](Cc1c[nH]c2ncccc12)C(=O)O; NH(CH2CH2O)8Me = COCCOCCOCCOCCOCCOCCOCCOCCN*; NMePhe(3-Cl) = CN[C@@H](Cc1cccc(Cl)c1)C(=O)O; NMeY = CN[C@@H](Cc1ccc(O)cc1)C(=O)O; Nva(3-Et) = CCC(CC)[C@H](N)C(=O)O; PEG4 = NCCOCCOCCOCCOCCC(=O)O; Carboxymethyl = O=C(O)C*

The target in experiment [1] is T1, human transferrin receptor (hTfR) (Homo sapiens, UniProt P02786). Kind of experiment: SPR measurement under pH 7.4 conditions (Biacore T200, CM3 chip, hTfR captured by His Tag antibody). The format is binding. The conditions noted are these: SPR, pH 7.4; peptide with the linker named in the table; read-out: hTfR SPR pH7.4 KD. (In SPR one partner is held on a chip, and binding of the other changes the refractive index at the surface.)
T1 sequence (P02786 whole entry): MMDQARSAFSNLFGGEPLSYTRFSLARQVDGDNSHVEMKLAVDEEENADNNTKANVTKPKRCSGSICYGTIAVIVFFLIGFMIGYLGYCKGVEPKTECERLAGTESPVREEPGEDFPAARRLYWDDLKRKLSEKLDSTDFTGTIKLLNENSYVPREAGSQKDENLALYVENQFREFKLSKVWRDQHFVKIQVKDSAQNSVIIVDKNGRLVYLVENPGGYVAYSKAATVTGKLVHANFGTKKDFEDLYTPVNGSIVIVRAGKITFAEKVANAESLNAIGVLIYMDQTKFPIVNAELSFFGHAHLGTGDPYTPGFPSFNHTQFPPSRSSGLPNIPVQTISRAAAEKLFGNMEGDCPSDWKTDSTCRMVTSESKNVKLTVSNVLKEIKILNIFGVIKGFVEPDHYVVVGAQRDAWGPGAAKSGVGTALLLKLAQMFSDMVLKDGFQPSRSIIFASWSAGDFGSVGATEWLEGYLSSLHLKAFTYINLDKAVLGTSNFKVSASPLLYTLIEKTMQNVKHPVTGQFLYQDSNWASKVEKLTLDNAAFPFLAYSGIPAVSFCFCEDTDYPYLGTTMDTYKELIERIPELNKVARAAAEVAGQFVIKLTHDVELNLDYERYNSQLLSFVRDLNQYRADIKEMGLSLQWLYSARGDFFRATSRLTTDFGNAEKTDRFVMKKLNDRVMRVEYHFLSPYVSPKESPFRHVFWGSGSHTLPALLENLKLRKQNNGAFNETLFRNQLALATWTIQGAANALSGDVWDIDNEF

The target in experiment [2] is T1, human transferrin receptor (hTfR). In words: SPR measurement under pH 6.0 conditions (Biacore T200, NTA chip, immobilized hTfR). The format is binding. The note with it: SPR, pH 6.0; peptide with the linker named in the table; read-out: hTfR SPR pH6.0 KD.

Consider `CCC(CC)[C@@H]1NC(=O)[C@H](Cc2ccc(OCC(=O)O)cc2)NC(=O)[C@H](Cc2ccc(O)cc2)NC(=O)[C@H](CC(N)=O)NC(=O)[C@H](Cc2c[nH]c3ncccc23)NC(=O)[C@H](C(C)C)NC(=O)[C@H](Cc2cccc(Cl)c2)N(C)C(=O)[C@H](C(C)C)NC(=O)[C@H](C)NC(=O)CSC[C@@H](C(=O)NCCOCCOCCOCCOCCC(N)=O)NC(=O)[C@H](Cc2ccc(O)cc2)N(C)C(=O)[C@H](Cc2cccc(C(=O)O)c2)NC(=O)[C@H](CCCNC(=N)N)NC(=O)[C@H](CCC(=O)NCCOCCOCCOCCOCCOCCOCCOCCOC)NC(=O)[C@H]([C@@H](C)CC)NC1=O` [compound 106] ({CH2CO}-AV[NMePhe(3-Cl)]V[Trp(7-aza)]NYY(Carboxymethyl)[Nva(3-Et)]IE(NH(CH2CH2O)8Me)R[Phe(3-COOH)][NMeY]C[PEG4]-NH2; thioether N-15), for which the equilibrium dissociation constant (Kd) (as a rule, the constant that tells how readily two partners part at equilibrium) in experiment [1] was found to be 0.026 µM; in experiment [2] it was 0.0901 µM.
Turning to `CCC(CC)[C@@H]1NC(=O)[C@H](Cc2ccc(OCC(=O)O)cc2)NC(=O)[C@H](Cc2ccc(O)cc2)NC(=O)[C@H](CC(N)=O)NC(=O)[C@H](Cc2c[nH]c3ncccc23)NC(=O)[C@H](C(C)C)NC(=O)[C@H](Cc2cccc(Cl)c2)N(C)C(=O)[C@H](C(C)C)NC(=O)[C@H](C)NC(=O)CSC[C@@H](C(=O)NCCOCCOCCOCCOCCC(N)=O)NC(=O)[C@H](Cc2ccc(C(=O)O)cc2)N(C)C(=O)[C@H](Cc2cccc(C(=O)O)c2)NC(=O)[C@H](CCCNC(=N)N)NC(=O)[C@H](CCC(N)=O)NC(=O)[C@H]([C@@H](C)CC)NC1=O` [compound 108] ({CH2CO}-AV[NMePhe(3-Cl)]V[Trp(7-aza)]NYY(Carboxymethyl)[Nva(3-Et)]IQR[Phe(3-COOH)][NMePhe(4-COOH)]C[PEG4]-NH2; thioether N-15), the Kd in experiment [1] was determined as 0.0139 µM; in experiment [2], 0.0361 µM.
The like results for `CCC(CC)[C@@H]1NC(=O)[C@H](Cc2ccc(OCC(=O)O)cc2)NC(=O)[C@H](Cc2ccc(O)cc2)NC(=O)[C@H](CC(N)=O)NC(=O)[C@H](Cc2cn(CC(=O)O)c3ccccc23)NC(=O)[C@H](C(C)C)NC(=O)[C@H](Cc2cccc(Cl)c2)N(C)C(=O)[C@H](C(C)C)NC(=O)[C@H](C)NC(=O)CSC[C@@H](C(=O)NCCOCCOCCOCCOCCC(N)=O)NC(=O)[C@H](Cc2ccc(O)cc2)N(C)C(=O)[C@H](Cc2cccc(C(=O)O)c2)NC(=O)[C@H](CCCCN2CCOCC2)NC(=O)[C@H](CCCCN2CCOCC2)NC(=O)[C@H]([C@@H](C)CC)NC1=O` [compound 109] ({CH2CO}-AV[NMePhe(3-Cl)]V[Trp(1-CH2COOH)]NYY(Carboxymethyl)[Nva(3-Et)]I[Nle(6-morpholino)][Nle(6-morpholino)][Phe(3-COOH)][NMeY]C[PEG4]-NH2; thioether N-15) were, in that order, 0.00699 µM and 0.0111 µM.
On the same counts, the results for `CCC(CC)[C@@H]1NC(=O)[C@H](Cc2ccc(OCC(=O)O)cc2)NC(=O)[C@H](Cc2ccc(O)cc2)NC(=O)[C@H](CC(N)=O)NC(=O)[C@H](Cc2c[nH]c3ccccc23)NC(=O)[C@H](C(C)C)NC(=O)[C@H](Cc2cccc(Cl)c2)N(C)C(=O)[C@H](C(C)C)NC(=O)[C@H](C)NC(=O)CSC[C@@H](C(=O)NCCOCCOCCOCCOCCC(N)=O)NC(=O)[C@H](Cc2ccc(C(=O)O)cc2)N(C)C(=O)[C@H](Cc2cccc(C(=O)NCCOCCOCCOCCOCCC(=O)O)c2)NC(=O)[C@H](CCCNC(=N)N)NC(=O)[C@H](CCC(N)=O)NC(=O)[C@H]([C@@H](C)CC)NC1=O` [compound 110] ({CH2CO}-AV[NMePhe(3-Cl)]VWNYY(Carboxymethyl)[Nva(3-Et)]IQR[X1](PEG4)[NMePhe(4-COOH)]C[PEG4]-NH2; thioether N-15) are 0.00746 µM and 0.0128 µM.
